36 compounds from US20130123215A1, “2,5-DIOXOIMIDAZOLIDIN-1-YL-3-PHENYLUREA DERIVATIVES AS FORMYL PEPTIDE RECEPTOR LIKE-1 (FPRL-1) RECEPTOR MODULATORS” (ALLERGAN, INC., priority 2011, published 2013) can be followed below.

pEC50: −log10 of the molar value.

One assay deals with T1, FPRL-1 (Homo sapiens, UniProt P25090).
T1 construct: expressed in transfected cells; host or cells: CHO-Gα16 cells stably expressing FPRL1
T1 sequence (P25090 1-351): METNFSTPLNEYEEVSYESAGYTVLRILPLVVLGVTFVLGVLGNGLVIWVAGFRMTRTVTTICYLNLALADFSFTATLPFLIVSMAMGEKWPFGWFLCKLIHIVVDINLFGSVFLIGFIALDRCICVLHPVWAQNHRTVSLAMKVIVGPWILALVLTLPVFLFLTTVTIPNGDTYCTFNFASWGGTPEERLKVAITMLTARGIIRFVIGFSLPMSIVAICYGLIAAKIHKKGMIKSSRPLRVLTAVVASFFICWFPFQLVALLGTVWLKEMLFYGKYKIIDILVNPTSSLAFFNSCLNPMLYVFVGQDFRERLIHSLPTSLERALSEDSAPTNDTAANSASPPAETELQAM
Nature of the assay: FPRL-1 Ga16-CHO compound-induced calcium activity (FLIPR Tetra). The class given is cell-based. The settings on record: CHO-Gα16 cells stably expressing FPRL1; calcium activity on FLIPR Tetra; tested at 0.61 to 10,000 nM; read-out: FPRL-1 Ga16-CHO EC50. As for the experimental part:
HEK-Gα16 and CHO-Gα16 cells stably expressing FPRL1 were cultured in (F12, 10% FBS, 1% PSA, 400 μg/ml geneticin and 50 μg/ml hygromycin) and HEK-Gqi5 cells stable expressing FPR1 were cultured in (DMEM high glucose, 10% FBS, 1% PSA, 400 μg/ml geneticin and 50 μg/ml hygromycin). In general, the day before the experiment, 18,000 cells/well were plated in a 384-well clear bottom poly-d-lysine coated plate. The following day the screening compound-induced calcium activity was assayed on the FLIPR^Tetra. The drug plates were prepared in 384-well microplates using the EP3 and the MultiPROBE robotic liquid handling systems. Compounds were tested at concentrations ranging from 0.61 to 10,000 nM. Results are expressed as EC50 (nM) and efficacy values.
As for `CC(C)C1(CC(=O)NCC(=O)O)NC(=O)N(NC(=O)Nc2ccc(Br)cc2)C1=O` (stereo not drawn) [Compound 92, 2-(2-(1-(3-(4-Bromophenyl)ureido)-4-isopropyl-2,5-dioxoimidazolidin-4-yl)acetamido)acetic acid], the pEC50 (usually the EC50 on a negative log10 scale, so that one unit is a factor of ten) is 6.88.
Same read-out and setting: the result for `CC1(CCc2cccc(F)c2)NC(=O)N(NC(=O)Nc2ccc(Br)cc2)C1=O` (stereo not drawn) [Compound 41, 1-(4-Bromophenyl)-3-(4-(3-fluorophenethyl)-4-methyl-2,5-dioxoimidazolidin-1-yl)urea] reads 7.95.
The same measure, in the same setting: the figure for `CC1(CCc2ccco2)NC(=O)N(NC(=O)Nc2ccc(Br)cc2)C1=O` (stereo not drawn) [Compound 35] is 8.16; for `CC1(CCc2ccco2)NC(=O)N(NC(=O)Nc2ccc(Br)cc2F)C1=O` (stereo not drawn) [Compound 36] it is 7.40.
In the case of `CC1(CCc2ccc(O)cc2)NC(=O)N(NC(=O)Nc2ccc(Br)cc2F)C1=O` (stereo not drawn) [Compound 45, 1-(4-Bromo-2-fluorophenyl)-3-(4-(4-hydroxyphenethyl)-4-methyl-2,5-dioxoimidazolidin-1-yl)urea], the pEC50 is 8.06.
Still for that read-out and setting: the result for `CCC1(CC)NC(=O)N(NC(=O)Nc2ccc(OC)cc2)C1=O` [Compound 3, 1-(4-Methoxyphenyl)-3-(4,4-diethyl-2,5-dioxoimidazolidin-1-yl)urea] reads 6.71; that for `CCC1(CC)NC(=O)N(NC(=O)Nc2ccc(Cl)cc2F)C1=O` [Compound 16, 1-(4-Chloro-2-fluorophenyl)-3-(4,4-diethyl-2,5-dioxoimidazolidin-1-yl)urea], 7.41.
Turning to `CC1(COc2ccccc2)NC(=O)N(NC(=O)Nc2ccc(Br)cc2)C1=O` (stereo not drawn) [Compound 25, 1-(4-Bromophenyl)-3-(4-methyl-2,5-dioxo-4-(phenoxymethyl)imidazolidin-1-yl)urea], the pEC50 is 7.66.
Same read-out and setting: the figure for `CC1(COc2ccccc2)NC(=O)N(NC(=O)Nc2ccc(Br)cc2F)C1=O` (stereo not drawn) [Compound 28, 1-(4-Bromo-2-fluorophenyl)-3-(4-methyl-2,5-dioxo-4-(phenoxymethyl)imidazolidin-1-yl)urea] is 7.28.
Still for that read-out and setting: the result for `CC1(CCc2cccc(O)c2)NC(=O)N(NC(=O)Nc2ccc(Br)cc2F)C1=O` (stereo not drawn) [Compound 53, 1-(4-Bromo-2-fluorophenyl)-3-(4-(3-hydroxyphenethyl)-4-methyl-2,5-dioxoimidazolidin-1-yl)urea] reads 8.54; that for `CC(C)C1(CC(=O)O)NC(=O)N(NC(=O)Nc2ccc(Br)cc2)C1=O` (stereo not drawn) [Compound 81, 2-(1-(3-(4-Bromophenyl)ureido)-4-isopropyl-2,5-dioxoimidazolidin-4-yl)acetic acid], 6.34; that for `CC1(CCc2ccc(O)cc2)NC(=O)N(NC(=O)Nc2ccc(Br)cc2)C1=O` (stereo not drawn) [Compound 42, 1-(4-Bromophenyl)-3-(4-(4-hydroxyphenethyl)-4-methyl-2,5-dioxoimidazolidin-1-yl)urea], 7.88.
Turning to `CC1(CCc2cccs2)NC(=O)N(NC(=O)Nc2ccc(Br)cc2)C1=O` (stereo not drawn) [Compound 43], the pEC50 is 8.10.
Take `O=C(Nc1ccc(Br)cc1F)NN1C(=O)NC2(CCc3ccccc3C2)C1=O` (stereo not drawn) [Compound 26]: the pEC50 was 6.72.
Still for that read-out and setting: the result for `CC1(CCc2ccc(F)cc2)NC(=O)N(NC(=O)Nc2ccc(Br)cc2F)C1=O` (stereo not drawn) [Compound 40, 1-(4-Bromo-2-fluorophenyl)-3-(4-(4-fluorophenethyl)-4-methyl-2,5-dioxoimidazolidin-1-yl)urea] reads 6.93; that for `CC1(CCc2ccc(F)cc2)NC(=O)N(NC(=O)Nc2ccc(Br)cc2)C1=O` (stereo not drawn) [Compound 39, 1-(4-Bromophenyl)-3-(4-(4-fluorophenethyl)-4-methyl-2,5-dioxoimidazolidin-1-yl)urea], 7.77; that for `CC(C)C1(CC(=O)NCC(=O)OC(C)(C)C)NC(=O)N(NC(=O)Nc2ccc(Br)cc2)C1=O` (stereo not drawn) [Compound 85, tert-Butyl 2-(2-(1-(3-(4-bromophenyl)ureido)-4-isopropyl-2,5-dioxoimidazolidin-4-yl)acetamido)acetate], 6.52.
Regarding `CCC1(C(C)C)NC(=O)N(NC(=O)Nc2ccc(Br)cc2F)C1=O` (stereo not drawn) [Compound 20, 1-(4-Bromo-2-fluorophenyl)-3-(4-ethyl-4-isopropyl-2,5-dioxoimidazolidin-1-yl)urea], the negative-log EC50 (pEC50) was 8.20.
`CC1(CCc2ccc(O)c(F)c2)NC(=O)N(NC(=O)Nc2ccc(Br)cc2F)C1=O` (stereo not drawn) [Compound 48, 1-(4-Bromo-2-fluorophenyl)-3-{4-[2-(3-fluoro-4-hydroxyphenyl)ethyl]-4-methyl-2,5-dioxoimidazolidin-1-yl}urea]: the negative logarithm of the EC50 (pEC50) was 8.13.
As to `CCC1(CC)NC(=O)N(NC(=O)Nc2ccc(SC)cc2)C1=O` [Compound 8, 1-(4-Methylthiophenyl)-3-(4,4-diethyl-2,5-dioxoimidazolidin-1-yl)urea], the negative logarithm of the EC50 (pEC50) is 7.43.
As for `CC1(CCc2ccc(Cl)cc2)NC(=O)N(NC(=O)Nc2ccc(Br)cc2)C1=O` (stereo not drawn) [Compound 33, 1-(4-Bromophenyl)-3-(4-(4-chlorophenethyl)-4-methyl-2,5-dioxoimidazolidin-1-yl)urea], the pEC50 was 6.48.
Regarding `CC1(CCc2ccccc2)NC(=O)N(NC(=O)Nc2ccc(Br)cc2F)C1=O` (stereo not drawn) [Compound 17, 1-(4-Bromo-2-fluorophenyl)-3-(4-methyl-2,5-dioxo-4-phenethylimidazolidin-1-yl)urea], the pEC50 is 7.21.
Same read-out and setting: the result for `CC1(CCc2ccncc2)NC(=O)N(NC(=O)Nc2ccc(Br)cc2F)C1=O` (stereo not drawn) [Compound 55] reads 7.54; that for `O=C(Nc1ccc(Br)cc1F)NN1C(=O)NC2(CCCCC2)C1=O` [Compound 15, 1-(4-Bromo-2-fluorophenyl)-3-(2,4-dioxo-1,3-diazaspiro[4.5]decan-3-yl)urea], 6.63; that for `CC1(CCc2ccc(C(=O)O)cc2)NC(=O)N(NC(=O)Nc2ccc(Br)cc2)C1=O` (stereo not drawn) [Compound 77, 4-(2-(1-(3-(4-Bromophenyl)ureido)-4-methyl-2,5-dioxoimidazolidin-4-yl)ethyl)benzoic acid], 6.68.
For the compound `O=C(Nc1ccc(Br)cc1)NN1C(=O)NC2(CCc3ccccc3C2)C1=O` (stereo not drawn) [Compound 27, 1-(4-Bromophenyl)-3-(2,5-dioxo-3′,4′-dihydro-1H,1′H-spiro[imidazolidine-4,2′-naphthalen]-1-yl)urea], the pEC50 is 7.27.
Consider `CC(C)C1(CC(=O)NCC(N)=O)NC(=O)N(NC(=O)Nc2ccc(Br)cc2)C1=O` (stereo not drawn) [Compound 96, N-(2-Amino-2-oxoethyl)-2-(1-(3-(4-bromophenyl)ureido)-4-isopropyl-2,5-dioxoimidazolidin-4-yl)acetamide], for which the negative logarithm of the EC50 (pEC50) is 7.29.
Same read-out and setting: the result for `CC1(CCc2ccccc2C(=O)O)NC(=O)N(NC(=O)Nc2ccc(Br)cc2)C1=O` (stereo not drawn) [Compound 78, 2-(2-(1-(3-(4-Bromophenyl)ureido)-4-methyl-2,5-dioxoimidazolidin-4-yl)ethyl)benzoic acid] reads 7.76.
In the case of `CC1(CCc2ccccc2O)NC(=O)N(NC(=O)Nc2ccc(Br)cc2)C1=O` (stereo not drawn) [Compound 50, 1-(4-Bromophenyl)-3-(4-(2-hydroxyphenethyl)-4-methyl-2,5-dioxoimidazolidin-1-yl)urea], the pEC50 was 9.01.
Take `CC1(CCc2ccccc2F)NC(=O)N(NC(=O)Nc2ccc(Br)cc2)C1=O` (stereo not drawn) [Compound 37, 1-(4-Bromophenyl)-3-(4-(2-fluorophenethyl)-4-methyl-2,5-dioxoimidazolidin-1-yl)urea]: the negative-log EC50 (pEC50) was 7.85.
As to `COC(=O)c1ccc(CCC2(C)NC(=O)N(NC(=O)Nc3ccc(Br)cc3)C2=O)cc1` (stereo not drawn) [Compound 58, Methyl 4-(2-(1-(3-(4-Bromophenyl)ureido)-4-methyl-2,5-dioxoimidazolidin-4-yl)ethyl)benzoate], the negative-log EC50 (pEC50) was 6.69.
For the compound `CC(C)CC1(CCc2ccccc2)NC(=O)N(NC(=O)Nc2ccc(Br)cc2)C1=O` (stereo not drawn) [Compound 31], the pEC50 is 7.06.
The same measure, in the same setting: the result for `CC(C)C1(CC(=O)NCCC(=O)O)NC(=O)N(NC(=O)Nc2ccc(Br)cc2)C1=O` (stereo not drawn) [Compound 93, 3-(2-(1-(3-(4-Bromophenyl)ureido)-4-isopropyl-2,5-dioxoimidazolidin-4-yl)acetamido)propanoic acid] reads 8.29; that for `CCC1(CC)NC(=O)N(NC(=O)Nc2ccc(C)cc2)C1=O` [Compound 7, 1-(4-Methylphenyl)-3-(4,4-diethyl-2,5-dioxoimidazolidin-1-yl)urea], 7.02; that for `CC(C)C1(CC(=O)NC(CO)CO)NC(=O)N(NC(=O)Nc2ccc(Br)cc2)C1=O` (stereo not drawn) [2-[1-{[(4-Bromophenyl)carbamoyl]amino}-2,5-dioxo-4-(propan-2-yl)imidazolidin-4-yl]-N-(1,3-dihydroxypropan-2-yl)acetamide], 7.79.

The assay is the same for the next values; noted with them: FPRL-1 Ga16-CHO EC50, CHO-Gα16 cells stably expressing FPRL1; calcium activity on FLIPR Tetra; tested at 0.61 to 10,000 nM.
Regarding `CCC1(CCc2ccccc2C(=O)OC)NC(=O)N(NC(=O)Nc2ccc(Br)cc2)C1=O` (stereo not drawn) [Compound 60, Methyl 2-(2-(1-(3-(4-bromophenyl)ureido)-4-ethyl-2,5-dioxoimidazolidin-4-yl)ethyl)benzoate], the pEC50 was 7.99.
